In US8883758B2, “3,5-disubstituted and 3,5,7-trisubstituted-3H-oxazolo and 3H-thiazolo[4,5-d]pyrimidin-2-one compounds and prodrugs thereof” (Anadys Pharmaceuticals, Inc., priority 2004, dated 2014):

Assays:
[1] = test system: fresh cynomolgus monkey hepatocytes; assay: Metabolism of Formula I prodrugs to 6-oxy metabolites in fresh cynomolgus monkey hepatocytes (LC/MS/MS); type: in vitro ADME
Procedure: A study was undertaken to evaluate the metabolic stability of Formula I compounds 14, 15, 13, 114, 30, 103, 67, 65, and 76 in the presence of fresh cynomolgus monkey hepatocytes and monitor the formation of 6-oxy metabolites, i.e., Formula II compounds and other compounds of the invention. For comparison, the metabolic stability of famciclovir was also assessed.
Fresh cynomolgus monkey hepatocyte suspension (Lot #: Cy141) was purchased from CellzDirect (Tucson, Ariz.). Hepatocyte Incubation Medium (serum-free, sterile) was purchased from In Vitro Technologies (Baltimore, Md.).
The cynomolgus monkey hepatocyte suspension was prepared from fresh cynomolgus monkey hepatocytes in hepatocyte incubation medium at the concentration of 1.25 million cells/mL. The final incubation concentration (after test article addition) was 1.0 million cells/mL.
Existing 100 mM stock solutions in DMSO were used. The concentrations of the test articles were checked using UV-vis microplate reader. Correction coefficients were determined using the absorbance of a freshly prepared DMSO stock of 122.
Reaction suspensions were prepared in removable 96-well tubes, each containing 320 μL of fresh cynomolgus monkey hepatocyte suspension at the density of 1.25 million cells per mL and 40 μL of hepatocyte incubation medium. The above mixtures were pre-incubated open at 37° C., 95% humidity and 5% CO2 for 30 minutes. Reactions were initiated by the addition of 40 μL of test article at 10× concentration to each tube to achieve the final concentrations of 50 μM for the test article(s) and 1 million/mL cell density. The reaction suspension in each tube was mixed by inverting the tube several times. Aliquots of 50 μL from each reaction suspension were distributed into six additional removable 96-well tubes (one tube per time point taken at 15, 30, 45, 60, 90, and 120 minutes). The open tubes were incubated at 37° C. under 95% humidity and 5% CO2.
At predetermined time points, reactions were terminated by the addition of 150 μL of the stop solution to each tube containing 50 μL of the reaction suspension. The composition of the stop solution was the following: 15 mL of acetonitrile (containing 1 μg/mL nebularine as an internal standard and 0.1% formic acid) combined with 1 mL water.
The calibration curves were prepared in the following way. To 80 μL of cell suspension (at the cell density of 1.25 million/mL) 10 μL of hepatocyte incubation medium and 10 μL of the appropriate concentration of the compound in hepatocyte incubation medium were added Immediately following the compound addition, 300 μL of the stop solution (see above) was added.
All quenched samples were kept on wet ice until they were processed for analysis. Then they were mixed using a bench top Multi-Tube Vortexer (VWR Scientific Products) for approximately 30 seconds, and centrifuged at 4,000 rpm (3,220 rcf) for 10 minutes at 4° C. Clear supernatant (100 μl) was transferred into a clean deep well 96-well plate, evaporated to dryness under nitrogen, reconstituted in 100 μL of 90:10 water:acetonitrile, and analyzed for the parent form and metabolites of the test article using an appropriate LC/MS/MS method.
The compounds were quantified on an API3000 LC/MS/MS instrument in the ESI-Positive MRM (multiple reaction monitoring) mode.

human PBMCs = assay: IFN-α induction from peripheral blood mononuclear cells (PBMC), IFN-α ELISA; type: cell-based; details: for Emax: Homo sapiens, PBMC, percentage of the level of IFN-α induction by either 32 or 100 μM isatoribine, 24 hours compound exposure, read-out: IFN-α induction from PBMCs relative to isatoribine; for Difference in amount of IFN-α produced compared with isatoribine: 100 μM test agent
Procedure: Peripheral blood mononuclear cells (PBMCs) are prepared by standard methods from human blood and are primarily comprised of monocytes, NK cells, circulating dendritic cells and both T and B cells. Briefly, they are purified by density gradient centrifugation from a buffy coat, which is the component of whole blood that contains leukocytes and platelets. In turn, buffy coats are prepared by centrifuging whole blood and isolating the thin cream colored layer between the upper plasma layer and the lower red blood cell portion of the separated mixture.
Freshly collected donor buffy coats were obtained from the San Diego Blood Bank. PBMCs were isolated from the buffy coats using histopaque-1077 gradient (Sigma), essentially as described in the manufacturer's protocol. Buffy coats were transferred into 50 ml centrifuge tubes and PBS added to a total volume of 35 ml. Next 10 ml histopaque-1077 was underlayed at the bottom of each tube, which were then centrifuged at 259×g for 30 minutes at room temperature without brake in a 5804 R centrifuge (Eppendorf). The top PBS level from each tube was removed and discarded and the buffy coat layer transferred to a fresh tube. The total volume was made up to 50 ml with PBS and the tubes were then centrifuged for 10 minutes at 259×g at room temperature. The cells were washed an additional 3 times with PBS in this manner.
The cell (PBMC) pellet was then resuspended in 30-40 ml complete (RPMI 1640) media. PBMCs were seeded at either 2.5 or 7.5×10^6 cells/ml complete media (1× and 3× seedings, respectively) and allowed to rest overnight before compound exposure for 24 hours. The cells and media were then collected, centrifuged for 5 minutes at 735×g in a 5415 C microfuge (Eppendorf) at room temperature and the supernatant analyzed by IFN-α ELISA. […] Hereby incorporated by reference in their entireties are U.S. Pat. Nos. 5,041,426 and 4,880,784, and U.S. patent application Ser. No. 10/861,430 (U.S. Patent Application Publication No. US 2005/0070556), which disclose, inter alia, IFN-α induction of isatoribine.
Accordingly, relative activities of the compounds of the invention are expressed as a percentage of the level of IFN-α induction by either 32 or 100 μM isatoribine.
Human IFN-α ELISA (#KHC4012) was performed as described in Biosource protocol. However, to ensure that readings were within the linear range of detection, PBMC supernatant samples were typically diluted 1:3 (2.5×10^6 cells/ml seeding) or 1:15 (7.5×10^6 cells/ml seeding) and then analyzed together with undiluted supernatant samples. The concentration in each sample was calculated from the O.D. by reference to a standard curve.

[2] = 1× PBMC seeding, 100 μM test compound

Row | SMILES | Emax (human PBMCs) [%] | other results
1 | Nc1ncc2sc(=O)n([C@@H]3O[C@H](CO)C[C@H]3O)c2n1 [Compound 13, 5-Amino-3-(3′-deoxy-β-D-ribofuranosyl)-3H-thiazolo[4,5-d]pyrimidin-2-one] |  | Metabolism to the corresponding 6-oxy metabolite [1]: metabolized to yield the corresponding 6-oxy metabolites
2 | CC(=O)OC[C@H]1O[C@@H](n2c(=S)sc3c(=O)[nH]c(N)nc32)[C@H](OC(C)=O)[C@@H]1OC(C)=O [Compound 32, 5-amino-2,3-dihydro-2-thioxo-3-(2′,3′,5′-tri-O-acetyl-β-D-ribofuranosyl)thiazolo[4,5-d]pyrimidin-7-(6H)-one] | 51 to 100 | 
3 | Nc1nc2c(sc(=S)n2[C@@H]2O[C@H](CO)[C@@H](O)[C@H]2O)c(=O)[nH]1 [Compound 33, 5-amino-2,3-dihydro-2-thioxo-3-β-D-ribofuranosyl-thiazolo[4,5-d]pyrimidin-7(6H)-one] | 0 to 10 | 
4 | CC(=O)OC[C@H]1O[C@@H](n2c(=S)sc3c(=O)[nH]c(N)nc32)[C@H](OC(C)=O)[C@H]1OC(C)=O [Compound 34, 5-amino-2,3-dihydro-2-thioxo-3-(2′,3′,5′-tri-O-acetyl-β-D-xylofuranosyl)thiazolo[4,5-d]pyrimidin-7-(6H)-one] | > 100 | 
5 | C[C@@]1(O)[C@@H](CO)O[C@@H](n2c(=O)sc3c(=O)[nH]c(N)nc32)[C@@H]1O [Compound 117, 5-Amino-3-(3′-C-methyl-β-D-ribofuranosyl)thiazolo[4,5-d]pyrimidine-2,7(3H,6H)-dione] | > 100 | 
6 | CC(=O)OC[C@@H]1C[C@@H](OC(C)=O)[C@H](n2c(=O)sc3c(=O)[nH]c(N)nc32)O1 [Compound 121, 5-Amino-3-(2′,5′-di-O-acetyl-3′-deoxy-β-D-ribofuranosyl)-3H,6H-thiazolo[4,5-d]pyrimidine-2,7-dione] | > 100 | 
7 | Nc1nc2c(sc(=O)n2[C@@H]2O[C@H](CO)C[C@H]2O)c(=O)[nH]1 [Compound 122, 5-Amino-3-(3′-deoxy-β-D-ribofuranosyl)-3H,6H-thiazolo[4,5-d]pyrimidine-2,7-dione] | > 100 | IFN-α production compared with isatoribine (human PBMCs; [2]): significantly and substantially more IFN-α production; IFN-α production compared with isatoribine (human PBMCs; 3× PBMC seeding, 32 μM): dramatically and unexpectedly outperform isatoribine; Difference in amount of IFN-α produced compared with isatoribine (human PBMCs; 3× PBMC seeding): less clear-cut although visually apparent and statistically significant
8 | Nc1nc2c(sc(=O)n2[C@H]2C[C@H](O)[C@@H](CO)O2)c(=O)[nH]1 [Compound 130, 5-Amino-3-(2′-deoxy-β-D-ribofuranosyl)-3H,6H-thiazolo[4,5-d]pyrimidine-2,7-dione] | 51 to 100 | 
9 | C=C1[C@@H](O)[C@H](n2c(=O)sc3c(=O)[nH]c(N)nc32)O[C@@H]1CO [Compound 132, 5-Amino-3-(3′-deoxy-3′-methylidene-β-D-ribofuranosyl)-3H,6H-thiazolo[4,5-d]pyrimidine-2,7-dione] | > 100 | 
10 | CC(=O)OC[C@H]1O[C@@H](n2c(=O)sc3c(=O)[nH]c(N)nc32)[C@H](OC(C)=O)[C@H]1OC(C)=O [Compound 133, 5-Amino-3-(2′,3′,5′-tri-O-acetyl-β-D-xylofuranosyl)-3H,6H-thiazolo[4,5-d]pyrimidin-2-one] | > 100 | 
11 | Nc1nc2c(sc(=O)n2[C@@H]2O[C@H](CO)[C@H](O)[C@H]2O)c(=O)[nH]1 [Compound 134] | > 100 | IFN-α production compared with isatoribine (human PBMCs; [2]): significantly and substantially more IFN-α production; IFN-α production compared with isatoribine (human PBMCs; 3× PBMC seeding, 32 μM): dramatically and unexpectedly outperform isatoribine; Difference in amount of IFN-α produced compared with isatoribine (human PBMCs; 3× PBMC seeding): less clear-cut although visually apparent and statistically significant
12 | CO[C@@H]1[C@@H](O)[C@H](n2c(=O)sc3c(=O)[nH]c(N)nc32)O[C@@H]1CO [Compound 137, 5-Amino-3-(3′-(R)-Methoxy-β-D-xylofuranosyl)-3H,6H-thiazolo[4,5-d]pyrimidin-2-one] | 51 to 100 | 
13 | C[C@]1(O)[C@@H](CO)O[C@@H](n2c(=O)sc3c(=O)[nH]c(N)nc32)[C@@H]1O [Compound 141, 5-Amino-3-(3′-(S)-methyl, 2′,3′,5′-tri-hydroxy-β-D-xylofuranosyl)-3H,6H-thiazolo[4,5-d]pyrimidin-2-one] | 0 to 10 | 
14 | CC(=O)OCC(OC(C)=O)[C@H]1O[C@@H](n2c(=O)sc3c(=O)[nH]c(N)nc32)[C@H](OC(C)=O)[C@H]1OC(C)=O (stereo partly drawn) [Compound 142, 5-Amino-3-(5′-(1,2-diacetoxy-ethyl), 2′,3′-di-O-acetyl-β-D-glucofuranosyl)-3H,6H-thiazolo[4,5-d]pyrimidin-2-one] | 0 to 10 | 
15 | CC(=O)OC[C@H]1[C@@H](OC(C)=O)[C@H](n2c(=O)sc3c(=O)[nH]c(N)nc32)O[C@@H]1COC(C)=O [Compound 147, (3′S)-5-Amino-3-(3′-acetoxymethyl-2′,5′-di-O-acetyl-3′-deoxy-β-D-ribofuranosyl)-3H,6H-thiazolo[4,5-d]pyrimidin-2,7-dione] | > 100 | 
16 | Nc1nc2c(sc(=O)n2[C@@H]2O[C@H](CO)[C@@H](CO)[C@H]2O)c(=O)[nH]1 [Compound 148, (3′S)-5-Amino-3-(3′-deoxy-3′-hydroxymethyl-β-D-ribofuranosyl)-3H,6H-thiazolo[4,5-d]pyrimidin-2,7-dione] | 0 to 10 | 
17 | CC(=O)O[C@@H]1[C@@H](F)[C@@H](COC(=O)c2ccccc2)O[C@H]1n1c(=O)sc2c(=O)[nH]c(N)nc21 [Compound 152, (3′R)-5-Amino-3-(2′-O-acetyl-5′-O-benzoyl-3′-deoxy-3′-fluoro-β-D-xylofuranosyl)-3H,6H-thiazolo[4,5-d]pyrimidin-2,7-dione] | 11 to 50 | 
18 | Nc1nc2c(sc(=O)n2[C@@H]2O[C@H](CO)[C@H](F)[C@H]2O)c(=O)[nH]1 [Compound 153, (3′R)-5-Amino-3-(3′-deoxy-3′-fluoro-β-D-xylofuranosyl)-3H,6H-thiazolo[4,5-d]pyrimidin-2,7-dione] | > 100 | 
19 | CCCCCCn1c(=O)sc2c(=O)[nH]c(N)nc21 [Compound 157, 5-Amino-3-hexyl-3H,6H-thiazolo[4,5-d]pyrimidine-2,7-dione] | 0 to 10 | 
20 | Nc1nc2c(sc(=O)n2[C@H]2CC[C@@H](CO)O2)c(=O)[nH]1 [Compound 165, 5-Amino-3-(2′,3′-dideoxy-β-D-ribofuranosyl)-3H,6H-thiazolo[4,5-d]pyrimidine-2,7-dione] | 11 to 50 | 
